Assay results taken from patent US20120202892A1, “Cannabinoid-Containing Compositions and Methods for Their Use” (University of Kentucky Research Foundation, priority 2008, published 2012).
Values joined by “and” are separate entries in the source; they are usually repeats but may differ in a detail not shown here. Identical values can stand only once. “Also recorded” adds a separate entry of the source. Like-named read-outs stand apart in the source and are kept apart here. Marks after values point to notes of the source that are not given here.

Legend:
[1] = test system: CFA-induced knee joint inflammation; assay: Knee joint circumference in CFA mono-arthritic rats; format: in vivo, Sprague-Dawley rats
[2] = test system: CFA-induced knee joint inflammation; assay: Knee joint temperature in CFA mono-arthritic rats; format: in vivo, Sprague-Dawley rats
[3] = test system: CFA-induced mono-arthritis pain; assay: Pain-related posture (spontaneous pain rating score 0-5); format: in vivo, Sprague-Dawley rats; conditions: after CFA, before CBD gel
Excerpt: The abnormal posture of the affected hind limb of each animal was assigned a single score using a subjective pain-related behavioral scale (spontaneous pain rating score 0-5), i.e. 0—normal; 1—curling of the toes, 2—eversion of the paw; 3—partial weight bearing; 4—non-weight bearing and guarding; and 5—avoidance of any contact with the hindlimb (Sluka et al. (1994) Neuroreport 5:109-112).
Baseline parameters (body weight, knee joint temperature, and knee joint circumference) were obtained before the knee injection of rats with CFA. PWL test and exploratory activity testing were also conducted prior to CFA injection. Rats were anesthetized with a short term anesthetic and the left knee joint, cavity was injected with CFA for induction of mono-arthritis. On day 3, the back of each animal was shaved. […] Rats received daily treatments for four consecutive days of either vehicle gel, or CBD gel. Gel was applied to the skin in a templated region on the dorsal surface of the rat and rubbed into the skin for 30 sec to ensure complete coverage. The nitrile template was used to ensure specific area reproducibility. […] Exploratory activity was monitored prior to initial gel application and on the third day post gel application (after 6 h). […] Blood samples were obtained for CBD plasma quantification, and tissues (knee joints, dorsal root ganglia, spinal cord, brain) were collected after perfusion. […]

[4] = test system: CFA-induced mono-arthritis, secondary thermal hyperalgesia; assay: Secondary thermal hyperalgesia, paw withdrawal latency (PWL) test; format: in vivo, Sprague-Dawley rats; conditions: for Paw withdrawal latency (PWL), own baseline score: baseline before CFA and CBD
Description: Secondary thermal hyperalgesia was assessed with the paw withdrawal latency (PWL) test (Hargreaves et al. (1988) Pain 32: 77-88). PWLs were measured in response to a radiant heat source shone on one hind paw of the animals from beneath a glass top table. A shortened PWL response in animals with knee joint inflammation was indicative of secondary thermal hyperalgesia. Animals were placed in separate plastic cubicles (4×4×10 in) on a glass top table (2 mm thickness of glass) and allowed to adapt to their new environment for 20-30 min before testing. A small movable metal box that focused a high-intensity light beam through an aperture (0.5 cm×0.5 cm) was attached to an on/off switch and a digital timer. The light beam was applied to the plantar surface of the hind paw through the glass until the rat lifted its paw. At that time, the light is switched off and the number of seconds on the digital timer recorded as the PWL (sec). The maximal cut off time for the paw-withdrawal reflex was set to 15 sec (55° C.). […] Both hind paws were tested independently for 5 trials per side with 5-minute intervals between trials. A mean of the 5 trials was calculated for each animal. The PWL tests were performed before knee joint injection as a baseline and 5 times after the CFA injection beginning on day 3 (days 3-7). The examiner was blind from the treatment group of animals.
(§1) Baseline parameters (body weight, knee joint temperature, and knee joint circumference) were obtained before the knee injection of rats with CFA. PWL test and exploratory activity testing were also conducted prior to CFA injection. Rats were anesthetized with a short term anesthetic and the left knee joint, cavity was injected with CFA for induction of mono-arthritis. On day 3, the back of each animal was shaved. […] Rats received daily treatments for four consecutive days of either vehicle gel, or CBD gel. Gel was applied to the skin in a templated region on the dorsal surface of the rat and rubbed into the skin for 30 sec to ensure complete coverage. The nitrile template was used to ensure specific area reproducibility. The PWL test was conducted 4 h after gel application. Exploratory activity was monitored prior to initial gel application and on the third day post gel application (after 6 h). On the final day of gel application after the body and knee joint parameters were obtained and PWL test was conducted, rats were cuthanized by pentobarbital overdose. Blood samples were obtained for CBD plasma quantification, and tissues (knee joints, dorsal root ganglia, spinal cord, brain) were collected after perfusion.
Half of the treated rats were injected with the CFA in the knee joint. Within each group of rats, half received vehicle gel without CBD and the other half received the gel CBD. Four different doses were tested in the rats, 0.6 mg/d, 3.1 mg/d, 6.2 mg/d, or 62.3 mg/d. […] A two-fold lower dose and a ten-fold lower/higher dose (3.1 mg/d, 0.6 mg/d, and 62.3 mg/d) were also investigated. Area of application, amount of gel, and/or concentration of gel was adjusted to achieve the desired doses.

normal (non-CFA) rats = assay: Open field exploratory behavioral activity; format: in vivo, Sprague-Dawley rats
Description: Exploratory behavioral activity of the rats was monitored using the Flexfield Animal Activity System (San Diego Instruments; San Diego, Calif.) with a Photobeam Activity System software coupled to a computer according to previously published methods by Zhang et al., (2004) Pharmacol Biochem Behav 77: 145-153. Briefly, six main parameters were recorded: rearing events and rearing time, active time, and resting time, total activity (i.e. number of photobeams disturbed in the x-y-z planes while the rat was moving around in the box or involved in stationary movement such as grooming), and distance traveled. Activity testing was conducted in an isolated, temperature controlled area at similar times daily in order to provide consistent results.
as §1

[5] = Plasma CBD concentration after topical gel application (LC/MS); format: in vivo, Sprague-Dawley rats; conditions: rats
Description: as §1
50 μL aliquot of plasma collected from cannabidiol dosed rats was added to a siliconized microcentrifuge tube containing 500 μL of 1:1 ACN:ethyl acetate. The plasma/ACN:ethyl acetate sample was vortexed for 30 sec and centrifuged at 10,000×g for 20 min. The supernatant was removed and placed into a clean silanized culture tube and evaporated under nitrogen in a 37° C. water bath. The dried sample was reconstituted with 100 μL of ACN and vortexed for 30 sec, then sonicated for 5 min. […] Standards were prepared by spiking blank plasma samples with respective standard concentrations and extracting the standards similarly to the collected plasma samples.
The LC/MS system used to analyze samples was comprised of a Waters Alliance 2695 pump and autosampler, a Micromass™ ZQ detector, and 996 photodiode array detector with MassLynx™ software (Waters Corp., Milford, Mass.). A Symmetry™ C18 column (150×2.1 mm, 5 μm) with a Sentry Symmetry™ guard column (10×2.1 mm, 3.5 μm) was used with the LC/MS system. The ZQ detector was used with an electrospray ionization (ESI) probe set for single ion monitoring (SIM) for cannabidiol quantification. Analysis was performed in negative mode for m/z 313 [CBD-H]^− (dwell time: 30 sec). Capillary and cone voltage were set at […] and 40 V, respectively. Source block and desolvation temperatures were set at 120° C. and 250° C., respectively. Nitrogen produced from the Nitroflow Lab (Parker Hannifin Corp; Cleveland, Ohio) was used as nebulization and drying gas flow rates of 50 and 450 L/h, respectively. […]

CB2 receptor = CB2 receptor (Homo sapiens, UniProt P34972); conditions: cited from earlier work
[6] = test system: collagen-induced arthritis; conditions: mice, cited from earlier work
[7] = test system: CFA intraplantar injection; conditions: rats, 20 mg/kg oral, 7 consecutive days; cited from earlier work
[8] = test system: carrageenan-induced paw edema; conditions: cited from earlier work
[9] = in vivo; cited from earlier work
[10] = 0.6 mg/d group, after CFA, before CBD gel
[11] = 3.1 mg/d group, after CFA, before CBD gel
[12] = 3.1 mg/d transdermal CBD gel, Post-CBD, day 4
[13] = 6.2 mg/d group, after CFA, before CBD gel
[14] = 62.3 mg/d group, after CFA, before CBD gel
[15] = CFA + CBD group, baseline before CFA and before CBD

CB2 receptor, sequence (P34972 whole entry): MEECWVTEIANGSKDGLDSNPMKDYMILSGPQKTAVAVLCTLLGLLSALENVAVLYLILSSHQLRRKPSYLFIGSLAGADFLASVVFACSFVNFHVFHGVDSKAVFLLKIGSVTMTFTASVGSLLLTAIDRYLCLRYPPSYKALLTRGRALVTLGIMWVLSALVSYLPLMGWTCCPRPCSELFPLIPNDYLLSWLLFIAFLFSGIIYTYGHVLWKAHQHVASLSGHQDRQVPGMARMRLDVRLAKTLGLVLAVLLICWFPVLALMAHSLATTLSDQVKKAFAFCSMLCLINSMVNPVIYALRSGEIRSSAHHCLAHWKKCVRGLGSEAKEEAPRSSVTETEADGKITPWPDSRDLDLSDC

C=C(C)C1CCC(C)=CC1c1c(O)cc(CCCCC)cc1O (stereo not drawn) [CBD, 2-[3-methyl-6-(1-methylethenyl)-2-cyclohexen-1-yl]-5-pentyl-1,3-benzenedi-ol]
Knee joint circumference [mean ± SD] [1, 10]: 7.5 ± 0.3^b cm | Knee joint circumference [mean ± SD] ([1]; 0.6 mg/d transdermal CBD gel, Post-CBD, four consecutive days (day 4)): 7.0 ± 0.3^b cm | Knee joint circumference [mean ± SD] [1, 11]: 7.4 ± 0.4^b cm | Knee joint circumference [mean ± SD] [1, 12]: 7.1 ± 0.3^b cm | Knee joint circumference [mean ± SD] [1, 13]: 7.2 ± 0.3^b cm | Knee joint circumference [mean ± SD] ([1]; 6.2 mg/d transdermal CBD gel, Post-CBD, day 4, p<0.05 vs vehicle gel): 6.6±0.2 cm and 6.6 ± 0.2^b* cm | Knee joint circumference [mean ± SD] [1, 14]: 7.2 ± 0.0^a cm | Knee joint circumference [mean ± SD] ([1]; 62.3 mg/d transdermal CBD gel, Post-CBD, day 4, p<0.05 vs vehicle gel): 6.6±0.1 cm and 6.6 ± 0.1^a* cm | Knee joint circumference [mean ± SD] [1, 15]: 5.7±0.2 cm and 5.7 ± 0.2^c cm | Optimal treatment dose for knee inflammation ([1]; transdermal gel, no further improvement with 62.3 mg/d): 6.2 mg/day | Knee joint temperature [mean ± SD] [2, 10]: 31.7 ± 1.7^b ° C. | Knee joint temperature [mean ± SD] ([2]; 0.6 mg/d transdermal CBD gel, Post-CBD, day 4): 31.2 ± 0.7^b ° C. | Knee joint temperature [mean ± SD] [2, 11]: 30.8 ± 0.9^b ° C. | Knee joint temperature [mean ± SD] [2, 12]: 30.6 ± 0.6^b ° C. | Knee joint temperature [mean ± SD] [2, 13]: 32.1 ± 1.8^b ° C. | Knee joint temperature [mean ± SD] ([2]; 6.2 mg/d transdermal CBD gel, Post-CBD, day 4): 31.7 ± 2.1^b ° C. | Knee joint temperature [mean ± SD] [2, 14]: 34.1 ± 0.8^a ° C. | Knee joint temperature [mean ± SD] ([2]; 62.3 mg/d transdermal CBD gel, Post-CBD, day 4): 30.2 ± 0.9^a ° C. | Difference in knee joint temperature among the treatment groups ([2]; CBD gel doses vs vehicle gel, p>0.05): No knee joint temperature differences; also recorded: no significant differences | Knee joint temperature [mean ± SD] [2, 15]: 33.4 ± 0.2^a ° C. | Spontaneous pain rating scores [mean ± SD] ([3]; 0.6 mg/d group): 4.0 ± 0.0^b | Spontaneous pain rating scores [mean ± SD] ([3]; 3.1 mg/d group): 4.0 ± 0.0^b | Paw withdrawal latency (PWL), own baseline score ([4]; 6.2 mg/d group): 10.9 ± 0.3 s | Paw withdrawal latency (PWL), own baseline score ([4]; 62.3 mg/d group): 9.3 ± 0.3 s | Paw withdrawal latency (PWL) ([4]; CFA rats, 0.6 mg/d CBD gel, day 2 of application, 4 h after application): 7.8 ± 0.5 s | Improvement of PWL scores ([4]; CFA rats, 0.6 mg/d and 3.1 mg/d CBD, day 4): did not have improved PWL scores | Paw withdrawal latency (PWL) ([4]; CFA rats, 3.1 mg/d CBD gel, day 2 of application): 7.6 ± 0.8 s | Paw withdrawal latency (PWL) ([4]; CFA rats, 6.2 mg/d CBD gel, day 2 of application, p<0.05 vs vehicle gel): 9.2 ± 0.7 s | Paw withdrawal latency (PWL) ([4]; CFA rats, 6.2 mg/d CBD gel, day 4): 9.2 ± 0.3 s | Change in PWL vs CFA rats receiving vehicle gel ([4]; CFA rats, 6.2 mg/d, 4 h (d 1) post CBD dosing, p<0.05): improvement | Paw withdrawal latency (PWL) ([4]; CFA rats, 62.3 mg/d CBD gel, day 2 of application, p<0.05 vs vehicle gel): 9.1 ± 0.2 s | Paw withdrawal latency (PWL) ([4]; CFA rats, 62.3 mg/d CBD gel, day 4): 9.3 ± 0.2 s | Paw withdrawal latency (PWL) ([4]; normal controls, 6.2 mg/d CBD gel, day 4): 10.6 ± 0.3 s | Paw withdrawal latency (PWL) ([4]; normal rats, 0.6 mg/d CBD gel, day 2): 9.9 ± 0.2 s | Paw withdrawal latency (PWL) ([4]; normal rats, 3.1 mg/d CBD gel, day 2): 9.9 ± 0.3 s | Paw withdrawal latency (PWL) ([4]; normal rats, 6.2 mg/d CBD gel, day 2): 10.1 ± 0.9 s | Effect on PWL in normal rats ([4]; normal rats, any CBD dose (0.6, 3.1, 6.2 mg/d)): not affected; also recorded: no effect | Distance traveled (normal (non-CFA) rats; 0.6 mg/d CBD gel, post-dose, p<0.05 vs pre-dose): 1757.1±299.2 cm | Distance traveled (normal (non-CFA) rats; 0.6 mg/d group, pre-dose): 2245.5±367.4 cm | Rearing events (normal (non-CFA) rats; 3.1 mg/d group, pre-dose): 284.0±31.1 | Rearing time (normal (non-CFA) rats; 3.1 mg/d group, pre-dose): 189.1±20.7 | Exploratory activity, six parameters (rearing events, rearing time, total beams broken, distance traveled, active time, resting time) (normal (non-CFA) rats; among dose groups and pre- vs post-dose, p>0.05, exception distance traveled at 0.6 mg/d): No significant (p>0.05) differences | Plasma CBD concentration ([5]; topical gel 0.6 mg/d, four consecutive days): 3.8 ± 1.4 ng/mL | Plasma CBD concentration ([5]; topical gel 3.1 mg/d): 17.5 ± 4.4 ng/mL | Plasma CBD concentration ([5]; topical gel 6.2 mg/d): 33.3 ± 9.7 ng/mL | Plasma CBD concentration ([5]; topical gel 62.3 mg/d (10% w/w gel), not in linear profile): 1,629.9±379.0 ng/mL | Binding affinity for CB2 receptor (CB2 receptor): little binding affinity | Therapeutic action on established CIA ([6]; administered systemically (ip and oral)): beneficial therapeutic action | Optimal dose for arthritis suppression ([6]; i.p. (2.5, 5, 10, 20 mg/kg tested)): 5 mg/kg | Optimal dose for arthritis suppression ([6]; oral (10, 25, 50 mg/kg tested)): 25 mg/kg | Decrease in thermal and mechanical withdrawal latency [7]: 50% | Effect on hyperalgesia (PWL) ([8]; mice, 5 and 7.5 mg/kg oral, by 6 h): eliminated hyperalgesia | Effect on hyperalgesia (PWL) ([8]; mice, 10, 20 and 40 mg/kg oral, 3 h post carrageenan): elimination of hyperalgesia

CCCCCc1cc(O)c2c(c1)OC(C)(C)[C@@H]1CCC(C)=C[C@@H]21 [THC, Δ^9-tetrahydrocannabinol]
Side effects caused [9]: hypothermia and hypomobility
